# In ChEMBL document CHEMBL2146393, “Synthesis and antiviral activity of 4,6-disubstituted pyrimido[4,5-b]indole ribonucleosides” (Bioorg Med Chem, 2012):
# pIC50: −log10 of the molar value. Calls of active or inactive are those of the source. The calls are words filed in the database; no cut-off is given here.
# Assays:
# dengue virus type 2 = assay: Antiviral activity against Dengue virus 2 NGC infected in human HuH7-Ehr2 cells after 48 hrs by luciferase reporter gene assay; assay type: functional, organism-based; settings: Huh-7, 48 h
# THP-1 = assay: Cytotoxicity against human THP1 cells after 96 hrs by CCK8 assay; assay type: cell-based; settings: THP-1, 96 h
# CCRF-CEM [1] = assay: Cytostatic activity against human CCRF-CEM cells; assay type: cell-based
# HeLa [2] = assay: Cytotoxic activity against human HeLa cells; assay type: cell-based
# HeLa [3] = assay: Cytostatic activity against human HeLa cells; assay type: cell-based
# [4] = Cytotoxicity against human HepG2 cells after 96 hrs by CCK8 assay; assay type: cell-based
# CCRF-CEM [5] = assay: Cytotoxic activity against human CCRF-CEM cells; assay type: cell-based
# Hepatitis C virus = assay: Antiviral activity against Hepatitis C virus; assay type: functional, organism-based; settings: Hepacivirus hominis
# HL-60 [6] = assay: Cytostatic activity against human HL60 cells; assay type: cell-based
# HL-60 [7] = assay: Cytotoxic activity against human HL60 cells; assay type: cell-based
pIC50 (dengue virus type 2),SMILES,pIC50 (THP-1),Activity (CCRF-CEM [1]),Activity (HeLa [2]),Activity (HeLa [3]),CC50 at 96 h [4],Activity (CCRF-CEM [5]),Activity (Hepatitis C virus),Activity (HL-60 [6]),Activity (HL-60 [7])
6.47,OC[C@H]1O[C@@H](n2c3ccc(Cl)cc3c3c(-c4cccs4)ncnc32)[C@H](O)[C@@H]1O,4.34,Non-toxic,Non-toxic,Non-toxic,19.9 µM,Non-toxic,inactive,Non-toxic,Non-toxic
6.01,OC[C@H]1O[C@@H](n2c3ccc(Cl)cc3c3c(-c4cc5ccccc5o4)ncnc32)[C@H](O)[C@@H]1O,< 4.30,Non-toxic,Non-toxic,Non-toxic,> 50 µM,Non-toxic,inactive,Non-toxic,Non-toxic
4.49,OC[C@H]1O[C@@H](n2c3ccc(-c4ccoc4)cc3c3c(-c4ccco4)ncnc32)[C@H](O)[C@@H]1O,4.35,Non-toxic,Non-toxic,Non-toxic,33.1 µM,Non-toxic,inactive,Non-toxic,Non-toxic
4.06,OC[C@H]1O[C@@H](n2c3ccc(Cl)cc3c3c(-c4ccsc4)ncnc32)[C@H](O)[C@@H]1O,< 4.30,Non-toxic,Non-toxic,Non-toxic,> 50 µM,Non-toxic,inactive,Non-toxic,Non-toxic
4.75,OC[C@H]1O[C@@H](n2c3ccc(-c4ccco4)cc3c3c(-c4ccco4)ncnc32)[C@H](O)[C@@H]1O,< 4.30,Non-toxic,Non-toxic,Non-toxic,7.44 µM,Non-toxic,inactive,Non-toxic,Non-toxic
4.08,OC[C@H]1O[C@@H](n2c3ccccc3c3c(-c4ccco4)ncnc32)[C@H](O)[C@@H]1O,< 4.30,Non-toxic,Non-toxic,Non-toxic,> 50 µM,Non-toxic,inactive,Non-toxic,Non-toxic
4.61,OC[C@H]1O[C@@H](n2c3ccc(Cl)cc3c3c(-c4ccoc4)ncnc32)[C@H](O)[C@@H]1O,< 4.30,Non-toxic,Non-toxic,Non-toxic,> 50 µM,Non-toxic,inactive,Non-toxic,Non-toxic
5.54,OC[C@H]1O[C@@H](n2c3ccc(-c4ccccc4)cc3c3c(-c4ccco4)ncnc32)[C@H](O)[C@@H]1O,4.38,Non-toxic,Non-toxic,Non-toxic,20.7 µM,Non-toxic,inactive,Non-toxic,Non-toxic

SMILES,pIC50 (dengue virus type 2),pIC50 (THP-1),Activity (CCRF-CEM [1]),Activity (HeLa [2]),Activity (HeLa [3]),CC50 at 96 h [4],Activity (CCRF-CEM [5]),Activity (Hepatitis C virus),Activity (HL-60 [6]),Activity (HL-60 [7])
OC[C@H]1O[C@@H](n2c3ccc(Cl)cc3c3c(-c4ccco4)ncnc32)[C@H](O)[C@@H]1O,6.62,5.81,Non-toxic,Non-toxic,Non-toxic,0.175 µM,Non-toxic,inactive,Non-toxic,Non-toxic
OC[C@H]1O[C@@H](n2c3ccc(Cl)cc3c3c(-c4ccccc4)ncnc32)[C@H](O)[C@@H]1O,4.58,< 4.30,Non-toxic,Non-toxic,Non-toxic,> 50 µM,Non-toxic,inactive,Non-toxic,Non-toxic
